“And” between values parts separate entries of the source, which are not always exact repeats. Identical values can stand only once.
Test system: RPMI-8226 cells
Experiment: Gene expression profiling, NanoString nCounter PanCancer Pathways Panel, ROSALIND analysis
Type: cell-based, human
Details: RPMI-8226, TCH-165 samples 1-3
Method: RPMI-8226 cells were treated with vehicle or TCH-165 (10 μM) for 4 h. Total RNA was obtained using the mirVana miRNA Isolation Kit, with phenol (Thermofisher Scientific; AM1560; Waltham, MA, USA). Total RNA was quantified by Qubit (Thermofisher Scientific; Q32855; Waltham, MA, USA). and gene expression was evaluated against the nCounter® PanCancer Pathways Panel^TM according to the standard NanoString protocol.
Data were analyzed by ROSALIND® [36] with a hyperscale architecture developed by ROSALIND, Inc. (San Diego, CA, USA). Normalization, fold changes and p-values were calculated using criteria provided by NanoString. ROSALIND follows the nCounter® Advanced Analysis protocol of dividing counts within a lane by the geometric mean of the normalizer probes from the same lane. Housekeeping probes to be used for normalization are selected based on the geNorm algorithm, as implemented in the NormqPCR R library. Fold changes and p-values are calculated using the fast method as described in the nCounter Advanced Analysis 2.0 User Manual. The p-value adjustment is performed using the Benjamini–Hochberg method of estimating false discovery rates (FDR). Clustering of genes for the final heatmap of differentially expressed genes was done using the PAM (Partitioning Around Medoids) method using the fpc R library. Hypergeometric distribution was used to analyze the enrichment of pathways, gene ontology, domain structure and other ontologies. The topGO R library was used to determine local similarities and dependencies between GO terms in order to perform Elim pruning correction. Several database sources were referenced for enrichment analysis, including Interpro [40], NCBI [41], MSigDB [42, 43], REACTOME [44], WikiPathways. Enrichment was calculated relative to a set of background genes relevant to the experiment.

CCOC(=O)[C@]1(c2ccccc2)N=C(c2ccc(OC)cc2)N(Cc2ccccc2)[C@@H]1c1ccc(NCc2ccccc2)cc1 [TCH-165] was tested, and the “FGF2 normalized gene expression” value was 5.208 and 4.324 and 4.613, the “FGF3 normalized gene expression” value was 4.401 and 4.524 and 4.693 and the “FGF4 normalized gene expression” value was 5.044 and 4.927 and 4.613. For the same compound, the “FGF5 normalized gene expression” value was 2.723 and 2.569 and 3.0682, the “FGF6 normalized gene expression” value was 3.86 and 3.891 and 3.184 and the “FGF7 normalized gene expression” value was 4.86 and 4.996 and 4.653. For the same compound, the “FGF8 normalized gene expression” value was 4.723 and 3.569 and 3.805, the “FGF9 normalized gene expression” value was 7.044 and 7.045 and 7.083 and the “FGF10 normalized gene expression” value was 5.308 and 4.614 and 4.975. The “FGF11 normalized gene expression” value was 5.53 and 5.154 and 4.975, the “FGF12 normalized gene expression” value was 3.86 and 4.7789 and 4.769 and the “FGF13 normalized gene expression” value was 8.993 and 9.004 and 8.947. For the same compound, the “FGF14 normalized gene expression” value was 4.86 and 4.891 and 4.769, the “FGF16 normalized gene expression” value was 4.793 and 4.996 and 4.731 and the “FGF17 normalized gene expression” value was 2.723 and 3.154 and 3.653. For the same compound, the “FGF18 normalized gene expression” value was 4.101 and 2.3768 and 3.39, the “FGF19 normalized gene expression” value was 3.86 and 4.029 and 4.1271 and the “FGF20 normalized gene expression” value was 4.571 and 4.817 and 4.876. For the same compound, the “FGF21 normalized gene expression” value was 5.955 and 5.636 and 5.712, the “FGF22 normalized gene expression” value was 5.827 and 5.569 and 5.098 and the “FGF23 normalized gene expression” value was 5.208 and 5.124 and 5.341. For the same compound, the “FGFR1 normalized gene expression” value was 4.488 and 4.324 and 4.528, the “FGFR2 normalized gene expression” value was 6.015 and 5.836 and 5.461 and the “FGFR3 normalized gene expression” value was 5.488 and 4.614 and 4.9095. For the same compound, the “FGFR4 normalized gene expression” value was 4.401 and 3.891 and 4.1271, the “FIGF normalized gene expression” value was 4.101 and 3.817 and 2.943 and the “FLNA normalized gene expression” value was 9.475 and 9.497 and 9.54. For the same compound, the “FLNC normalized gene expression” value was 5.924 and 5.979 and 5.528, the “FLT1 normalized gene expression” value was 3.401 and 4.029 and 3.653 and the “FLT3 normalized gene expression” value was 3.401 and 2.739 and 3.0682. The “FN1 normalized gene expression” value was 13.4955 and 13.457 and 13.4134, the “FOS normalized gene expression” value was 7.234 and 7.603 and 7.613 and the “FOSL1 normalized gene expression” value was 5.892 and 5.759 and 5.712. The “FOXL2 normalized gene expression” value was 4.924 and 4.569 and 4.528, the “FOXO4 normalized gene expression” value was 6.986 and 7.124 and 6.787 and the “FST normalized gene expression” value was 5.308 and 5.093 and 5.184. For the same compound, the “FUBP1 normalized gene expression” value was 10.9203 and 10.8641 and 10.8501, the “FUT8 normalized gene expression” value was 8.45 and 8.328 and 8.338 and the “FZD2 normalized gene expression” value was 4.571 and 4.817 and 5.211. For the same compound, the “FZD3 normalized gene expression” value was 7.195 and 7.427 and 7.378, the “FZD7 normalized gene expression” value was 4.986 and 4.7789 and 4.805 and the “FZD8 normalized gene expression” value was 4.401 and 3.569 and 4.1271. The “FZD9 normalized gene expression” value was 5.208 and 4.029 and 4.341, the “FZD10 normalized gene expression” value was 4.86 and 3.962 and 4.437 and the “GADD45A normalized gene expression” value was 9.132 and 9.301 and 9.248. For the same compound, the “GADD45B normalized gene expression” value was 7.884 and 7.9093 and 7.914, the “GADD45G normalized gene expression” value was 4.101 and 4.569 and 4.693 and the “GAS1 normalized gene expression” value was 5.259 and 4.029 and 4.653. The “GATA1 normalized gene expression” value was 5.156 and 4.476 and 4.437, the “GATA2 normalized gene expression” value was 4.924 and 4.476 and 4.0068 and the “GATA3 normalized gene expression” value was 2.986 and 4.029 and 4.1271. For the same compound, the “GHR normalized gene expression” value was 4.208 and 4.657 and 4.876, the “GLI1 normalized gene expression” value was 4.793 and 4.996 and 5.1271 and the “GLI3 normalized gene expression” value was 7.234 and 6.709 and 6.884. For the same compound, the “GNA11 normalized gene expression” value was 6.86 and 6.739 and 6.602, the “GNAQ normalized gene expression” value was 4.86 and 5.324 and 4.653 and the “GNAS normalized gene expression” value was 10.7886 and 10.9336 and 10.8358. For the same compound, the “GNG4 normalized gene expression” value was 4.208 and 4.569 and 4.9095, the “GNG7 normalized gene expression” value was 5.488 and 5.452 and 4.975 and the “GNGT1 normalized gene expression” value was 4.86 and 4.699 and 4.341. The “GPC4 normalized gene expression” value was 4.986 and 4.324 and 4.238, the “GRB2 normalized gene expression” value was 11.2288 and 11.2361 and 11.1936 and the “GRIA3 normalized gene expression” value was 5.101 and 4.029 and 4.39. For the same compound, the “GRIN1 normalized gene expression” value was 6.182 and 5.836 and 5.975, the “GRIN2A normalized gene expression” value was 5.955 and 5.678 and 5.437 and the “GRIN2B normalized gene expression” value was 3.401 and 3.476 and 2.943. The “GSK3B normalized gene expression” value was 8.384 and 8.242 and 8.36, the “GTF2H3 normalized gene expression” value was 9.358 and 9.284 and 9.271 and the “GZMB normalized gene expression” value was 4.649 and 4.029 and 4.5707. The “H2AFX normalized gene expression” value was 9.249 and 8.96 and 9.049, the “H3F3A normalized gene expression” value was 13.5139 and 13.5375 and 13.5217 and the “HDAC1 normalized gene expression” value was 9.665 and 9.611 and 9.679. For the same compound, the “HDAC2 normalized gene expression” value was 11.0236 and 10.9286 and 10.9442, the “HDAC4 normalized gene expression” value was 6.986 and 6.798 and 6.778 and the “HDAC5 normalized gene expression” value was 8.03 and 8.069 and 8.049. For the same compound, the “HDAC6 normalized gene expression” value was 7.658 and 7.699 and 7.643, the “HELLS normalized gene expression” value was 9.578 and 9.451 and 9.503 and the “HES1 normalized gene expression” value was 4.924 and 4.855 and 4.613. For the same compound, the “HGF normalized gene expression” value was 8.129 and 8.033 and 8.145, the “HHEX normalized gene expression” value was 5.986 and 6.012 and 5.943 and the “HIST1H3B normalized gene expression” value was 15.271 and 14.9487 and 14.86. For the same compound, the “HIST1H3G normalized gene expression” value was 14.1552 and 13.7784 and 13.7341, the “HIST1H3H normalized gene expression” value was 15.3267 and 14.9451 and 14.9056 and the “HMGA1 normalized gene expression” value was 10.7304 and 10.6516 and 10.6817. The “HMGA2 normalized gene expression” value was 4.86 and 4.657 and 4.0068, the “HNF1A normalized gene expression” value was 5.53 and 4.962 and 4.769 and the “HOXA9 normalized gene expression” value was 5.355 and 5.242 and 5.291. For the same compound, the “HOXA10 normalized gene expression” value was 5.61 and 5.592 and 5.437, the “HOXA11 normalized gene expression” value was 4.986 and 5.093 and 5.414 and the “HPGD normalized gene expression” value was 4.208 and 4.3768 and 5.0068.
